# System: angiogenesis genes in dermal microvascular endothelial cells
# Experiment: Real time RT-PCR of angiogenesis gene expression during endothelial tube formation
# Format: cell-based
# Conditions: 1 μM SM, 24 hours
smiles,measurement,value
CC1CCN(CC[S-])CC1.O.O.[Cl][Pt+] [compound 292596],Log2 fold-change of gene expression: 1839,−0.3
same,Log2 fold-change of gene expression: 4247,−0.3
same,Log2 fold-change of gene expression: 5569,0.1
same,Log2 fold-change of gene expression: 8131,0.3
same,Log2 fold-change of gene expression: 9569,−2.0
same,Log2 fold-change of gene expression: 10988,0.9
same,Log2 fold-change of gene expression: 23001,0.1
same,Log2 fold-change of gene expression: 55332,−8.6
same,Log2 fold-change of gene expression: 57722,−0.2
same,Log2 fold-change of gene expression: 58488,0.2
same,Log2 fold-change of gene expression: 90780,−0.8
same,Log2 fold-change of gene expression: 134265,−1.6
same,Log2 fold-change of gene expression: AKT1,−0.8
same,Log2 fold-change of gene expression: ANGPT1,2.2
same,Log2 fold-change of gene expression: ANGPT2,0.8
same,Log2 fold-change of gene expression: ANGPTL3,1.0
same,Log2 fold-change of gene expression: ANGPTL4,−3.2
same,Log2 fold-change of gene expression: ANPEP,0.8
same,Log2 fold-change of gene expression: ANTXR1,−2.1
same,Log2 fold-change of gene expression: APOE,5.1
same,Log2 fold-change of gene expression: ARHGEF1,−1.6
same,Log2 fold-change of gene expression: Acvrl1,−1.6
same,Log2 fold-change of gene expression: Adcy4,4.3
same,Log2 fold-change of gene expression: BAL1,1.7
same,Log2 fold-change of gene expression: BMP1,−0.4
same,Log2 fold-change of gene expression: C1orf54,−2.2
same,Log2 fold-change of gene expression: CALD1,1.6
same,Log2 fold-change of gene expression: CCL2,2.4
same,Log2 fold-change of gene expression: CCL11,2.1
same,Log2 fold-change of gene expression: CD248,0.2
same,Log2 fold-change of gene expression: CDH5,−0.2
same,Log2 fold-change of gene expression: CENTD3,0.1
same,Log2 fold-change of gene expression: CLIC1,0.6
same,Log2 fold-change of gene expression: COL4A3,1.9
same,Log2 fold-change of gene expression: COL18A1,2.3
same,Log2 fold-change of gene expression: COMT,−0.7
same,Log2 fold-change of gene expression: CST4,0.3
same,Log2 fold-change of gene expression: CTTNBP2NL,−3.4
same,Log2 fold-change of gene expression: CXCL3,−3.8
same,Log2 fold-change of gene expression: CXCL5,5.6
same,Log2 fold-change of gene expression: CXCL6,2.2
same,Log2 fold-change of gene expression: CXCL9,1.5
same,Log2 fold-change of gene expression: CXCL10,2.5
same,Log2 fold-change of gene expression: Calcr1,−4.3
same,Log2 fold-change of gene expression: Caskin2,−2.3
same,Log2 fold-change of gene expression: Ccbp2,0.0
same,Log2 fold-change of gene expression: Cldn5,−0.6
same,Log2 fold-change of gene expression: DGKG,1.8
same,Log2 fold-change of gene expression: DKK3,−0.4
same,Log2 fold-change of gene expression: DLL4,−6.6
same,Log2 fold-change of gene expression: DUT,−1.2
same,Log2 fold-change of gene expression: EFNA1,3.1
same,Log2 fold-change of gene expression: EFNA3,0.5
same,Log2 fold-change of gene expression: EFNB2,−3.4
same,Log2 fold-change of gene expression: EGF,2.2
same,Log2 fold-change of gene expression: ENG,−0.3
same,Log2 fold-change of gene expression: EPHB4,0.9
same,Log2 fold-change of gene expression: EREG,9.6
same,Log2 fold-change of gene expression: ESAM1,−2.0
same,Log2 fold-change of gene expression: EXTL3,−0.5
same,Log2 fold-change of gene expression: Egf17,−3.3
same,Log2 fold-change of gene expression: Ehd4,−1.0
same,Log2 fold-change of gene expression: Entpd1,−8.3
same,Log2 fold-change of gene expression: Epas1,0.3
same,Log2 fold-change of gene expression: EphB1,0.4
same,Log2 fold-change of gene expression: Erg,−6.4
same,Log2 fold-change of gene expression: FGF1,4.8
same,Log2 fold-change of gene expression: FGF2,2.5
same,Log2 fold-change of gene expression: FGFR3,2.2
same,Log2 fold-change of gene expression: FIGF,1.7
same,Log2 fold-change of gene expression: FLT1,−1.9
same,Log2 fold-change of gene expression: Fgd5,−1.0
same,Log2 fold-change of gene expression: GPCR124,−6.7
same,Log2 fold-change of gene expression: GRRP1,0.2
same,Log2 fold-change of gene expression: Grp116,−3.1
same,Log2 fold-change of gene expression: HAND2,1.7
same,Log2 fold-change of gene expression: HGF,2.2
same,Log2 fold-change of gene expression: HIF1A,−2.1
same,Log2 fold-change of gene expression: HPSE,−0.3
same,Log2 fold-change of gene expression: Hspa12b,−3.3
same,Log2 fold-change of gene expression: ID1,4.0
same,Log2 fold-change of gene expression: ID3,1.0
same,Log2 fold-change of gene expression: IFNA1,2.2
same,Log2 fold-change of gene expression: IFNB1,2.6
same,Log2 fold-change of gene expression: IFNG,6.5
same,Log2 fold-change of gene expression: IGF1,0.6
same,Log2 fold-change of gene expression: IL1B,−4.1
same,Log2 fold-change of gene expression: IL6,3.7
same,Log2 fold-change of gene expression: IL8,5.1
same,Log2 fold-change of gene expression: ITGAV,−0.9
same,Log2 fold-change of gene expression: ITGB3,−1.8
same,Log2 fold-change of gene expression: Icam1,0.5
same,Log2 fold-change of gene expression: Icam2,−0.4
same,Log2 fold-change of gene expression: JAG1,0.5
same,Log2 fold-change of gene expression: KDR,−1.8

# — US9504729B2, “Antiangiogenic small molecules and methods of use” (The United States of America, as represented by the …, priority 2009, dated 2016)
